pIC50: −log10 of the molar value.

This assay deals with Aldo-keto reductase family 1 member B1 (Rattus norvegicus, UniProt P07943). In words: Inhibitory activity against purified rat lens aldose reductase (RLAR).

On to `O=C(O)CC1c2cc(F)ccc2-c2ccc(F)cc21`, for which the pIC50 is 6.37.
Then `O=C1NC(=O)C2(N1)c1ccccc1-c1ccccc12`, with 5.46.
Then `c1ccc2c(c1)-c1ccccc1C2c1nnn[nH]1`, with 3.66; and `CC(C)c1cccc2c1OC(C(C)C)C(=S)N2CC(=O)O` (stereo not drawn), with 6.89.
In the case of `O=C(O)C=C1c2cc(F)ccc2-c2ccc(F)cc21`, the pIC50 was 4.80.
Under `O=C(O)C1c2ccccc2-c2ccccc21` stands 3.74; under `O=C(O)CC1c2ccccc2-c2ccc(F)cc21` (stereo not drawn), 6.07.
`O=C(O)C1CC12c1ccccc1-c1ccccc12` (stereo not drawn) had a pIC50 of 4.93.
Under `c1ccc2c(c1)-c1ccccc1C2Cc1nnn[nH]1` stands 2.83; under `O=C(O)/C=C1\c2ccccc2-c2ccc(F)cc21`, 4.25.
Then `O=C(O)CC1c2ccccc2-c2ccccc21`, with 5.05; and `O=C(O)Cc1nn(Cc2ccc(Br)cc2F)c(=O)c2ccccc12` [PONALRESTAT], with 7.80.
The molecule `O=C(O)Cn1c(=O)n(Cc2ccc(Br)cc2F)c(=O)c2ccc(Cl)cc21` [ZENARESTAT] had a pIC50 of 8.36.

The record behind these values is ChEMBL document CHEMBL1127671, “Molecular modeling studies of aldose reductase inhibitors” (J Med Chem, 1994).
